Laboratory results: US10639285B2 (Aurea Biolabs Private Limited, priority 2014, dated 2020)

Assay: Absorption of curcumin and white curcumin in the blood plasma (FIG. 3)
Format: in vivo

time of absorption in the blood plasma: 2 h
Structure (SMILES): COc1cc(C=CC(=O)CC(=O)C=Cc2ccc(O)c(OC)c2)ccc1O [curcumin, 1,7 bis (4-hydroxy-3-methoxy phenyl)-1,6 heptadiene-3,5-dione]
